Results reported in US20020137929A1, “1 - (3-heterocyclylphenyl) isothiourea, -isourea, -guanidine and -amidine herbicidal agents” (Intellectual Property Department, BASF Aktiengesellschaft, priority 1998, published 2002).

Assays:
[1] = system: ZEAMX (Corn, Field); assay: Preemergence herbicidal evaluation; format: in vivo, Zea mays; conditions: rated 4-5 weeks after treatment, rating scale 0-9
How it was run: (§1)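 Scores use a 0–9 visual scale covering stand, vigor, malformation, size and chlorosis relative to controls, rated four to five weeks after treatment. Before emergence, soil-planted seeds were sprayed with compound in aqueous acetone at roughly 0.0156–0.500 kg/ha and held in the greenhouse.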

[2] = system: ABUTH (Velvetleaf); assay: Postemergence herbicidal evaluation; format: in vivo, Abutilon theophrasti; conditions: postemergence
How it was run: (§2)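 Young plants, roughly two weeks from seeding, receive the active ingredient as a sprayed dispersion (acetone/water 50/50, 0.5% TWEEN 20) at 40 psi. Doses span about 0.0156 to 0.500 kg/ha. A visual score from 0 to 9 compares treated with control plants four to five weeks on.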

[3] = system: SETVI (Foxtail, Green); assay: Postemergence herbicidal evaluation; format: in vivo, Setaria viridis; conditions: postemergence
How it was run: as §2

[4] = system: TRZAWR (Wheat, Winter, cv Riband); assay: Preemergence herbicidal evaluation; format: in vivo, Triticum aestivum; conditions: rated 4-5 weeks after treatment, rating scale 0-9
How it was run: as §1

[5] = system: CHEAL (Lambsquarters, Common); assay: Preemergence herbicidal evaluation; format: in vivo, Chenopodium album; conditions: rated 4-5 weeks after treatment, rating scale 0-9
How it was run: as §1

[6] = system: ECHCG (Barnyardgrass); assay: Postemergence herbicidal evaluation; format: in vivo, Echinochloa crus-galli; conditions: postemergence
How it was run: as §2

[7] = system: ORYSAT (Rice, Tebonnet); assay: Postemergence herbicidal evaluation; format: in vivo, Oryza sativa, (L.) Tebonnet; conditions: postemergence
How it was run: as §2

[8] = system: ZEAMX (Corn, Field); assay: Postemergence herbicidal evaluation; format: in vivo, Zea mays; conditions: postemergence
How it was run: as §2

[9] = system: IPOHE (Morningglory, Ivyleaf); assay: Postemergence herbicidal evaluation; format: in vivo, Ipomoea hederacea; conditions: postemergence
How it was run: as §2

[10] = system: ABUTH (Velvetleaf); assay: Preemergence herbicidal evaluation; format: in vivo, Abutilon theophrasti; conditions: rated 4-5 weeks after treatment, rating scale 0-9
How it was run: as §1

[11] = system: CASOB (Sicklepod); assay: Preemergence herbicidal evaluation; format: in vivo, Cassia obtusifolia; conditions: rated 4-5 weeks after treatment, rating scale 0-9
How it was run: as §1

[12] = system: ECHCG (Barnyardgrass); assay: Preemergence herbicidal evaluation; format: in vivo, Echinochloa crus-galli; conditions: rated 4-5 weeks after treatment, rating scale 0-9
How it was run: as §1

[13] = system: CHEAL (Lambsquarters, Common); assay: Postemergence herbicidal evaluation; format: in vivo, Chenopodium album; conditions: postemergence
How it was run: as §2

[14] = system: GLXMAW (Soybean, Williams); assay: Preemergence herbicidal evaluation; format: in vivo, Glycine max, (L.) Merr. cv Williams; conditions: rated 4-5 weeks after treatment, rating scale 0-9
How it was run: as §1

[15] = system: IPOHE (Morningglory, Ivyleaf); assay: Preemergence herbicidal evaluation; format: in vivo, Ipomoea hederacea; conditions: rated 4-5 weeks after treatment, rating scale 0-9
How it was run: as §1

Compound: Cn1c(C(F)(F)F)cc(=O)n(-c2cc(N=C3SCC(=O)N3Cc3ccc(Br)cc3)c(Cl)cc2F)c1=O [Compound 148, 3-{5-{[3-(p-Bromobenzyl)-4-oxo-2-thiazolidinyl-idene]amino}-4-chloro-2-fluorophenyl}-1-methyl-6-(trifluoromethyl)-2,4(1H,3H)-pyrimidinedione]
- Preemergence herbicidal rating ZEAMX ([1]; rate 0.0313 kg/ha): 0.0
- Preemergence herbicidal rating ZEAMX ([1]; rate 0.0625 kg/ha): 0.0
- Preemergence herbicidal rating ZEAMX ([1]; rate 0.1250 kg/ha): 0.0
- Preemergence herbicidal rating ZEAMX ([1]; rate 0.2500 kg/ha): 1.0
- herbicidal rating ABUTH ([2]; rate 0.0156 kg/ha): 9.0
- herbicidal rating ABUTH ([2]; rate 0.0313 kg/ha): 9.0
- herbicidal rating ABUTH ([2]; rate 0.0625 kg/ha): 9.0
- herbicidal rating SETVI ([3]; rate 0.0156 kg/ha): 2.0
- herbicidal rating SETVI ([3]; rate 0.0313 kg/ha): 2.0
- herbicidal rating SETVI ([3]; rate 0.0625 kg/ha): 4.0
- Preemergence herbicidal rating TRZAWR ([4]; rate 0.0313 kg/ha): 0.0
- Preemergence herbicidal rating TRZAWR ([4]; rate 0.0625 kg/ha): 0.0
- Preemergence herbicidal rating TRZAWR ([4]; rate 0.1250 kg/ha): 0.0
- Preemergence herbicidal rating TRZAWR ([4]; rate 0.2500 kg/ha): 0.0
- Preemergence herbicidal rating CHEAL ([5]; rate 0.0313 kg/ha): 6.0
- Preemergence herbicidal rating CHEAL ([5]; rate 0.0625 kg/ha): 9.0
- Preemergence herbicidal rating CHEAL ([5]; rate 0.1250 kg/ha): 9.0
- Preemergence herbicidal rating CHEAL ([5]; rate 0.2500 kg/ha): 9.0
- herbicidal rating ECHCG ([6]; rate 0.0156 kg/ha): 2.0
- herbicidal rating ECHCG ([6]; rate 0.0313 kg/ha): 3.0
- herbicidal rating ECHCG ([6]; rate 0.0625 kg/ha): 3.0
- herbicidal rating ORYSAT ([7]; rate 0.0156 kg/ha): 2.0
- herbicidal rating ORYSAT ([7]; rate 0.0313 kg/ha): 3.0
- herbicidal rating ORYSAT ([7]; rate 0.0625 kg/ha): 3.0
- herbicidal rating ZEAMX ([8]; rate 0.0156 kg/ha): 4.0
- herbicidal rating ZEAMX ([8]; rate 0.0313 kg/ha): 4.0
- herbicidal rating ZEAMX ([8]; rate 0.0625 kg/ha): 5.0
- herbicidal rating IPOHE ([9]; rate 0.0156 kg/ha): 9.0
- herbicidal rating IPOHE ([9]; rate 0.0313 kg/ha): 9.0
- herbicidal rating IPOHE ([9]; rate 0.0625 kg/ha): 9.0
- Preemergence herbicidal rating ABUTH ([10]; rate 0.0313 kg/ha): 0.0
- Preemergence herbicidal rating ABUTH ([10]; rate 0.0625 kg/ha): 1.0
- Preemergence herbicidal rating ABUTH ([10]; rate 0.1250 kg/ha): 4.0
- Preemergence herbicidal rating ABUTH ([10]; rate 0.2500 kg/ha): 4.0
- Preemergence herbicidal rating CASOB ([11]; rate 0.0313 kg/ha): 0.0
- Preemergence herbicidal rating CASOB ([11]; rate 0.0625 kg/ha): 0.0
- Preemergence herbicidal rating CASOB ([11]; rate 0.1250 kg/ha): 0.0
- Preemergence herbicidal rating CASOB ([11]; rate 0.2500 kg/ha): 0.0
- Preemergence herbicidal rating ECHCG ([12]; rate 0.0313 kg/ha): 0.0
- Preemergence herbicidal rating ECHCG ([12]; rate 0.0625 kg/ha): 0.0
- Preemergence herbicidal rating ECHCG ([12]; rate 0.1250 kg/ha): 0.0
- Preemergence herbicidal rating ECHCG ([12]; rate 0.2500 kg/ha): 0.0
- herbicidal rating CHEAL ([13]; rate 0.0156 kg/ha): 4.0
- herbicidal rating CHEAL ([13]; rate 0.0313 kg/ha): 7.0
- herbicidal rating CHEAL ([13]; rate 0.0625 kg/ha): 7.0
- Preemergence herbicidal rating GLXMAW ([14]; rate 0.0313 kg/ha): 0.0
- Preemergence herbicidal rating GLXMAW ([14]; rate 0.0625 kg/ha): 0.0
- Preemergence herbicidal rating GLXMAW ([14]; rate 0.1250 kg/ha): 0.0
- Preemergence herbicidal rating GLXMAW ([14]; rate 0.2500 kg/ha): 0.0
- Preemergence herbicidal rating IPOHE ([15]; rate 0.0313 kg/ha): 0.0
- Preemergence herbicidal rating IPOHE ([15]; rate 0.0625 kg/ha): 0.0
- Preemergence herbicidal rating IPOHE ([15]; rate 0.1250 kg/ha): 0.0
- Preemergence herbicidal rating IPOHE ([15]; rate 0.2500 kg/ha): 0.0
